Source: paper PMC3408433, “Selective Cytotoxicity of Amidinopiperidine Based Compounds Towards Burkitt’s Lymphoma Cells Involves Proteasome Inhibition” (PLoS ONE, 2012)
pKi: −log10 of the molar value. Where two headings read alike, the source gives them in different places.

Legend:
Thrombin = target: Thrombin; design: method as in PMID 15497744, PMID 15544050, PMID 17484277; details: amidolytic assay, chromogenic substrate; determined previously; cited from earlier work
α-chymotrypsin = α-chymotrypsin (Bos taurus, UniProt P00766); assay: α-Chymotrypsin inhibition assay
Method: In short, a 1 nM solution of α-chymotrypsin was mixed with various concentrations of the substrate Suc-Ala-Ala-Pro-Phe-AMC. All the solutions were prepared in 144 mM Tris–HCl, pH 7.8. Substrate hydrolysis was monitored at 30°C on an automated Tecan Safire^2 microplate reader (Tecan, Mannedorf/Zürich, Switzerland). The initial rates of the reactions (ΔF/Δt) were measured immediately after the addition of the substrate (within 200 s) and plotted versus substrate concentration with nonlinear regression to fit a Michaelis-Menten plot. The curve fit and kinetic parameters (Km and v max) were calculated using GraphPad PRISM version 5.0 software (GraphPad Software, Inc., CA, USA). […] The initial velocities of the hydrolysis reactions were measured under the same conditions as described for the determination of Km. 50 µl of α-chymotrypsin solution was added to 50 µl of each inhibitor solution (prepared in 144 mM Tris–HCl, pH 7.8; final concentration 1 nM) and incubated at 30°C for 15 min. The reaction was initiated with the addition of 100 µl of substrate. […] The Ki values were determined as mean values of all measurements.

Factor Xa = target: Factor Xa; design: method as in PMID 15497744, PMID 15544050, PMID 17484277; details: amidolytic assay, chromogenic substrate; determined previously; cited from earlier work
Trypsin = target: Trypsin; design: method as in PMID 15497744, PMID 15544050, PMID 17484277; details: amidolytic assay, chromogenic substrate; determined previously; cited from earlier work
[1] = test system: Ramos Burkitt’s lymphoma cells; assay: Metabolic activity assay (MTS), Ramos; assay type: cell-based, human; details: 24 h; for cytotoxicity group (Figure 3A) / viability at 100 µM: 100 µM; for viability at 100 µM: Homo sapiens, read-out: residual metabolic activity relative to untreated control
Method: When investigating the potency of selected serine protease inhibitors to induce cell death in human B lymphoma cells, we identified a set of compounds cytotoxic for Burkitt’s lymphoma. Using a metabolic activity assay (MTS), we evaluated the proliferation rate of Ramos Burkitt’s lymphoma cells, in the presence of serine protease inhibitors. Cells were treated for 24 h with the compound of interest at concentrations of 100 µM (1–13, 15, 16) or 50 µM (14). After a comparison of metabolic activity relative to that in the untreated control, three groups with distinct modes of action were determined (Figure 3A). […] The second group (compounds 1–3, 5, 7 and 13) caused a moderate decrease (50% to 80%) relative to untreated cells. The last group of compounds (11, 15, 16) severely impaired the metabolic activity, such that it fell to under 6%.
(§1) Cells (1×10^5 cells/mL for Ramos, Daudi, U937 and Jurkat, and 1×10^6 cells/mL for PBMC) were treated with the appropriate amounts of compounds of interest or corresponding vehicle (control cells), then seeded in triplicate in 96 well plates. The metabolic activity was assessed using the CellTiter 96® Aqueous One Solution Cell Proliferation Assay (Promega, Madison/WI, USA), in accordance with the manufacturer’s instructions.

[2] = test system: human histiocytic lymphoma (U937); assay: Metabolic activity assay (MTS), U937; assay type: cell-based; details: U937, 50 µM, 24 h
Method: (§2) Compounds 11, and 14–16 were further tested for selective cytotoxicity. The experiments were conducted on freshly isolated primary peripheral blood mononuclear cells (PBMC) and three other haematological cancers: human T cell leukaemia (Jurkat), human histiocytic lymphoma (U937) and human Burkitt’s lymphoma (Daudi). An MTS assay was performed following 24 h of treatment with the compound of interest at 50 µM. […] The inhibition of proliferation in Ramos cells, mediated with compounds 15 and 16, was concentration dependent.
as §1

[3] = test system: peripheral blood mononuclear cells (PBMC); assay: Metabolic activity assay (MTS), PBMC; assay type: cell-based, human; details: 50 µM, 24 h
Method: as §2, §1

Solubility remark = assay type: physicochemical; details: reason for testing at 50 µM
[4] = test system: human Burkitt’s lymphoma (Daudi); assay: Metabolic activity assay (MTS), Daudi; assay type: cell-based; details: 50 µM, 24 h
Method: as §2, §1

[5] = test system: human T cell leukaemia (Jurkat); assay: Metabolic activity assay (MTS), Jurkat; assay type: cell-based; details: 50 µM, 24 h
Method: as §2, §1

| Structure (SMILES) | pKi (Thrombin) | pKi (α-chymotrypsin) | pKi (Factor Xa) | pKi (Trypsin) | cytotoxicity group (Figure 3A) [1] | viability at 100 µM [1] [%] | residual metabolic activity relative to control [2] | residual metabolic activity relative to control [3] | solubility (Solubility remark) | residual metabolic activity relative to control [4] | residual metabolic activity relative to control [5] | pKi (α-chymotrypsin; read-out: Ki α-chymotrypsin, substrate Suc-Ala-Ala-Pro-Phe-AMC, pH 7.8, 30°C) | residual metabolic activity relative to control ([1]; 50 µM) |
| --- | --- | --- | --- | --- | --- | --- | --- | --- | --- | --- | --- | --- | --- |
| CC1CCN(C(=O)N(Cc2ccc(/C(N)=N\O)cc2)NC(=O)c2ccc3ccccc3c2)CC1 [Compound 2] | < 3.70 | 3.59 | < 3.70 | 3.70 | moderately cytotoxic (caused a moderate decrease (50% to 80%) relative to untreated cells) | 50 to 80 | – | – | – | – | – | – | – |
| CC(=O)NCc1ccc(CN(NS(=O)(=O)c2ccc3ccccc3c2)C(=O)N2CCCCC2)cc1 [Compound 9] | – | 4.39 | – | – | well tolerated (well tolerated by Ramos, since their residual metabolic activity did not fall below 80%) | ≥ 80 | – | – | – | – | – | – | – |
| CC(=O)N1CCC(CN(NS(=O)(=O)c2ccc3ccccc3c2)C(=O)N2CCCCC2)CC1 [Compound 14] | – | 4.32 | – | – | – | – | under 40% | under 40% | poor solubility | under 40% | under 40% | – | – |
| CC1CCN(C(=O)N(Cc2ccc(C#N)cc2)NC(=O)c2ccc3ccccc3c2)CC1 [Compound 5] | – | 3.56 | – | – | moderately cytotoxic (caused a moderate decrease (50% to 80%) relative to untreated cells) | 50 to 80 | – | – | – | – | – | – | – |
| CC(C)CC(NS(=O)(=O)c1ccc2ccccc2c1)C(=O)NN(Cc1ccc(C(=N)N)cc1)C(=O)N1CCCCCC1 (centres unmarked) [Compound 10] | 5.00 | – | < 4.00 | < 4.00 | well tolerated (well tolerated by Ramos, since their residual metabolic activity did not fall below 80%) | ≥ 80 | – | – | – | – | – | 5.06 | – |
| N/C(=N/O)c1ccc(CN(NC(=O)c2ccc3ccccc3c2)C(=O)N2CCCCCC2)cc1 [Compound 1] | 5.28 | 4.47 | 4.11 | 3.18 | moderately cytotoxic (caused a moderate decrease (50% to 80%) relative to untreated cells) | 50 to 80 | – | – | – | – | – | – | – |
| CC(=O)Nc1ccc(CN(NS(=O)(=O)c2ccc3ccccc3c2)C(=O)N2CCOCC2)cc1 [Compound 8] | – | 4.61 | – | – | well tolerated (well tolerated by Ramos, since their residual metabolic activity did not fall below 80%) | ≥ 80 | – | – | – | – | – | – | – |
| O=C(N1CCCCC1)N(CC1CCNCC1)NS(=O)(=O)c1ccc2ccccc2c1 [Compound 13] | 4.52 | 4.18 | – | < 3.70 | moderately cytotoxic (caused a moderate decrease (50% to 80%) relative to untreated cells) | 50 to 80 | – | – | – | – | – | – | – |
| CC1CCN(C(=O)N(Cc2cccc(C(=N)N)c2)NC(=O)c2ccc3ccccc3c2)CC1 [Compound 6] | 5.17 | 4.77 | 5.24 | 5.74 | well tolerated (well tolerated by Ramos, since their residual metabolic activity did not fall below 80%) | ≥ 80 | – | – | – | – | – | – | – |
| N/C(=N\O)c1cccc(CN(NC(=O)c2ccc3ccccc3c2)C(=O)N2CCCCCC2)c1 [Compound 3] | 5.32 | 5.52 | 4.22 | < 4.00 | moderately cytotoxic (caused a moderate decrease (50% to 80%) relative to untreated cells) | 50 to 80 | – | – | – | – | – | – | – |
| CC1CCN(C(=O)N(CC2CCNCC2)NS(=O)(=O)c2ccc3ccccc3c2)CC1 [Compound 11] | 4.72 | 4.41 | – | < 3.70 | severely cytotoxic (severely impaired the metabolic activity, such that it fell to under 6%) | < 6 | under 40% | under 40% | – | under 40% | under 40% | – | under 40% |
| N/C(=N\O)c1cccc(CN(NS(=O)(=O)c2ccc3ccccc3c2)C(=O)N2CCOCC2)c1 [Compound 4] | 5.51 | 4.39 | 4.22 | 4.32 | well tolerated (well tolerated by Ramos, since their residual metabolic activity did not fall below 80%) | ≥ 80 | – | – | – | – | – | – | – |
| O=C(N1CCOCC1)N(CC1CCNCC1)NS(=O)(=O)c1ccc2ccccc2c1 [Compound 12] | 4.28 | 3.82 | – | < 3.70 | well tolerated (well tolerated by Ramos, since their residual metabolic activity did not fall below 80%) | ≥ 80 | – | – | – | – | – | – | – |
| Nc1ccc(CN(NS(=O)(=O)c2ccc3ccccc3c2)C(=O)N2CCOCC2)cc1 [Compound 7] | 5.35 | 5.40 | 4.21 | 5.25 | moderately cytotoxic (caused a moderate decrease (50% to 80%) relative to untreated cells) | 50 to 80 | – | – | – | – | – | – | – |
